In patent US11660293B2, “Substituted 2-azabicyclo[3.1.1]heptane and 2-azabicyclo[3.2.1]octane derivatives as orexin receptor antagonists” (Chronos Therapeutics Limited, priority 2017, dated 2023):

Experiments:
[1] = target: T1, human Orexin type 1 receptors (Homo sapiens (Human), UniProt O43613); experiment: Intracellular calcium measurement (FLIPR), antagonism of Orexin-A at EC80 in CHO-hOX1 cells
[2] = target: T2, human Orexin type 2 receptors (Homo sapiens (Human), UniProt O43614); experiment: Intracellular calcium measurement (FLIPR), antagonism of Orexin-A at EC80 in CHO-hOX2 cells
[3] = target: T1, human Orexin type 1 receptors; experiment: Scintillation Proximity Assay (SPA) binding assay, [3H]SB-674042 displacement, CHO-hOX1 membranes
[4] = target: T2, human Orexin type 2 receptors; experiment: Scintillation Proximity Assay (SPA) binding assay, [3H]EMPA displacement, HEK-hOX2 membranes

T2 sequence (O43614 whole entry): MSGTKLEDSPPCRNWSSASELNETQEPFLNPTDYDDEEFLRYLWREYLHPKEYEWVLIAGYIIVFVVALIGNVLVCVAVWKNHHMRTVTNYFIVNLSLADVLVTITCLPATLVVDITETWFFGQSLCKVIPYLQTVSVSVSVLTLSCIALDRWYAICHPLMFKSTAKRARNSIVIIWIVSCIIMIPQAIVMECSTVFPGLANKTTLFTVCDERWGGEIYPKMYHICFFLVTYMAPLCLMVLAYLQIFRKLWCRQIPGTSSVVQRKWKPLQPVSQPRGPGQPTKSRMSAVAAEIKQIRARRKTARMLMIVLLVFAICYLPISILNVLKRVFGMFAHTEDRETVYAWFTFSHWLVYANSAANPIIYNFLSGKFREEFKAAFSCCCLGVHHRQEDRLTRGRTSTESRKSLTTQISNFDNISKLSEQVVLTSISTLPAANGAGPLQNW
T1 sequence (O43613 whole entry): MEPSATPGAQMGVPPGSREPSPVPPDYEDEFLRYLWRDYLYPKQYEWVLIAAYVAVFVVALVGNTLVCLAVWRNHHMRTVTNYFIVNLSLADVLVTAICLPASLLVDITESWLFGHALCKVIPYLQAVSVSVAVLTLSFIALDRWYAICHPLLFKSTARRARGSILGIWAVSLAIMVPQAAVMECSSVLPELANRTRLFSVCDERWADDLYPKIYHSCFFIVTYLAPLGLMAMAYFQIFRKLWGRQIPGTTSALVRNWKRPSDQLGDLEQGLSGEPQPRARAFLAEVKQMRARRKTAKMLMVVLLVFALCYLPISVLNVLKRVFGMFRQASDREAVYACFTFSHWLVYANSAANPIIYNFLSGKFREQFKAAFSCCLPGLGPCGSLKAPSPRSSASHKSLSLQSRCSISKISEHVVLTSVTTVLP

| Compound | Ki [1] | Ki [2] | OX1 pKi (SPA binding) ([3]; Table 2, [3H]SB-674042 2 nM) | OX2 pKi (SPA binding) ([4]; Table 2, [3H]EMPA 2 nM) | further results |
| --- | --- | --- | --- | --- | --- |
| Cc1ccc(-c2ncccn2)c(C(=O)N2C3CC(C3)C(C)C2COc2ccc(F)cc2)c1 (mixture of isomers) [Example 69, CIS/TRANS 3-(4-fluorophenoxymethyl)-4-methyl-2-[5-methyl-2-(pyrimidin-2-yl)benzoyl]-2-azabicyclo[3.1.1]heptane] | 12.9 nM | 295 nM |  |  |  |
| Cc1ccc(-c2nccs2)c(C(=O)N2C(COc3ccc(Cl)cc3)CC3CC2C3)c1 (stereo not drawn) [Example 20] | 22.9 nM |  |  |  |  |
| Cc1ccc(-c2nccs2)c(C(=O)N2C(COc3ccc(F)cn3)CC3CC2C3)c1 (single isomer, unassigned) [Example 26, (3S or 3R) 3-{[(5-fluoropyridin-2-yl)oxy]methyl}-2-{[5-methyl-2-(1,3-thiazol-2-yl)phenyl]carbonyl}-2-azabicyclo[3.1.1]heptane] | 18.2 nM | 182 nM |  |  |  |
| Cc1ccc(-c2ncccn2)c(C(=O)N2C(COc3ccc(F)cc3)CC3CC2C3)c1 (single isomer, unassigned) [Example 17, (3S or 3R) 3-(4-fluorophenoxymethyl)-2-{[5-methyl-2-(pyrimidin-2-yl)phenyl]carbonyl}-2-azabicyclo[3.1.1]heptane] | 15.1 nM | 355 nM |  |  |  |
| Cc1ccc(-c2nccs2)c(C(=O)N2C(COc3ccc(F)cc3)CC3CC2C3)n1 (racemic) [Example 4] | 5.75 nM | 162 nM |  |  |  |
| Cc1ccc(-n2nccn2)c(C(=O)N2C(COc3ccc(F)cc3)CC3CC2C3)c1 (single isomer, unassigned) [Example 12, (3S or 3R) 3-(4-fluorophenoxymethyl)-2-{[5-methyl-2-(2H-1,2,3-triazol-2-yl)phenyl]carbonyl}-2-azabicyclo[3.1.1]heptane] | 27.5 nM | 1050 nM |  |  |  |
| Cc1nc(C(=O)N2C(COc3ccc(F)cn3)CC3CC2C3)c(-c2ccccc2)s1 (stereo not drawn) [Example 24] | 46.8 nM | 759 nM |  |  |  |
| Cc1nc(C(=O)N2C3CC(C3)C(C)C2COc2cnc3ccc(Cl)cc3n2)c(-c2ccccc2)s1 (mixture of isomers) [Example 84, CIS/TRANS 7-chloro-2-{[4-methyl-2-(2-methyl-5-phenyl-1,3-thiazole-4-carbonyl)-2-azabicyclo[3.1.1]heptan-3-yl]methoxy}quinoxaline] | 75.9 nM | 1860 nM |  |  |  |
| Cc1ccc(-c2ncccn2)c(C(=O)N2C(CCOc3ccc(F)cc3)CC3CC2C3)c1 (single isomer, unassigned) [Example 42, (3S or 3R) 3-[2-(4-fluorophenoxy)ethyl]-2-[5-methyl-2-(pyrimidin-2-yl)benzoyl]-2-azabicyclo[3.1.1]heptane] | 18.2 nM | 107 nM |  |  |  |
| Cc1ccc(-c2ncccn2)c(C(=O)N2C3CC(C3)[C@@H](C)C2COc2ccc(F)cn2)c1 (single isomer, unassigned) [Example 75, (3S,4R or 3R,4S) 3-{[(5-fluoropyridin-2-yl)oxy]methyl}-4-methyl-2-[5-methyl-2-(pyrimidin-2-yl)benzoyl]-2-azabicyclo[3.1.1]heptane] | 10.5 nM | 105 nM |  |  |  |
| Cc1ccc(-n2nccn2)c(C(=O)N2C(COc3ccc(F)cn3)CC3CC2C3)c1 (single isomer, unassigned) [Example 29, (3S or 3R) 3-{[(5-fluoropyridin-2-yl)oxy]methyl}-2-{[5-methyl-2-(2H-1,2,3-triazol-2-yl)phenyl]carbonyl}-2-azabicyclo[3.1.1]heptane] | 46.8 nM | 617 nM |  |  |  |
| Cc1ccc(-c2ncccn2)c(C(=O)N2C(COc3ccc(Cl)cc3)CC3CC2C3)c1 (stereo not drawn) [Example 19] | 91.2 nM | 977 nM |  |  |  |
| Cc1ccc(-c2ncccn2)c(C(=O)N2C(COc3ccc(Cl)cn3)CC3CC2C3)c1 (racemic) [Example 32] | 72.4 nM | 513 nM |  |  |  |
| Cc1ccc(-c2ncccn2)c(C(=O)N2C(COc3ccc(F)cc3)CC3CC2C3)n1 (racemic) [Example 13] | 7.76 nM | 170 nM |  |  |  |
| Cc1nc(C(=O)N2C3CC(C3)C(C)C2COc2cc3ccccc3cn2)c(-c2ccccc2)s1 (mixture of isomers) [Example 85, CIS/TRANS 3-{[4-methyl-2-(2-methyl-5-phenyl-1,3-thiazole-4-carbonyl)-2-azabicyclo[3.1.1]heptan-3-yl]methoxy}isoquinoline] | 6.31 nM | 1050 nM |  |  |  |
| Cc1nc(C(=O)N2C3CC(C3)C(C)C2COc2nccc3ccccc23)c(-c2ccccc2)s1 (mixture of isomers) [Example 83] | 3.47 nM | 46.8 nM |  |  |  |
| Cc1ccc(-c2nccs2)c(C(=O)N2C(COc3ccc(F)cc3)CC3CC2C3)c1 (racemic) [Example 7] | 7.08 nM | 141 nM |  |  |  |
| Cc1ccc(-c2nccs2)c(C(=O)N2C3CC(C3)[C@H](C)C2COc2ccc(F)cc2)n1 (single isomer, unassigned) [Example 108, (3S,4S or 3R,4R)-3-[(4-fluorophenoxy)methyl]-4-methyl-2-[6-methyl-3-(1,3-thiazol-2-yl)pyridine-2-carbonyl]-2-azabicyclo[3.1.1]heptane] |  |  |  |  | Ki ([3]; Table 1, [3H]SB-674042 2 nM, read-out: OX1 pKi (SPA binding) (converted)): 3.24 nM; Ki ([4]; Table 1, [3H]EMPA 2 nM, read-out: OX2 pKi (SPA binding) (converted)): 407 nM |
| C[C@@H]1C2CC(C2)N(C(=O)c2cc(Cl)ccc2-n2nccn2)C1CNc1ncc(C2CC2)cn1 (stereo partly drawn) [Example 259] |  |  | 7.66 | 5.32 |  |
| Cc1ccc(-n2nccn2)c(C(=O)N2C3CC(C3)[C@H](C)C2CNc2ccc(Cl)cn2)n1 (mixture of isomers) [Example 148, trans-5-chloro-N-({4-methyl-2-[6-methyl-3-(2H-1,2,3-triazol-2-yl)pyridine-2-carbonyl]-2-azabicyclo[3.1.1]heptan-3-yl}methyl)pyridin-2-amine] |  |  | 6.85 | 5.62 |  |
| Cc1ccc(-n2nccn2)c(C(=O)N2C3CC(C3)[C@@H](C)C2CNc2ccc(F)c(C)n2)n1 (mixture of isomers) [Example 196, cis-5-fluoro-6-methyl-N-({4-methyl-2-[6-methyl-3-(2H-1,2,3-triazol-2-yl)pyridine-2-carbonyl]-2-azabicyclo[3.1.1]heptan-3-yl}methyl)pyridin-2-amine] |  |  | 7.65 | 5.74 |  |
| C[C@@H]1C2CC(C2)N(C(=O)c2cc(Cl)ccc2-n2nccn2)C1CNc1nc2ccc(F)cc2s1 (mixture of isomers) [Example 171, cis-N-({2-[5-chloro-2-(2H-1,2,3-triazol-2-yl)benzoyl]-4-methyl-2-azabicyclo[3.1.1]heptan-3-yl}methyl)-6-fluoro-1,3-benzothiazol-2-amine] |  |  | 8.9 | 6.32 |  |
| Cc1ccc(-c2nccs2)c(C(=O)N2C3CC(C3)[C@@H](C)C2COc2ccc(F)cc2)c1 (mixture of isomers) [Example 98, cis-3-[(4-fluorophenoxy)methyl]-4-methyl-2-[5-methyl-2-(1,3-thiazol-2-yl)benzoyl]-2-azabicyclo[3.1.1]heptane] |  |  |  |  | OX1 pKi (SPA binding) ([3]; Table 1, [3H]SB-674042 2 nM): 7.86; OX2 pKi (SPA binding) ([4]; Table 1, [3H]EMPA 2 nM): 6.75 |
| C[C@@H]1C2CC(C2)N(C(=O)c2cc(C#N)ccc2-n2nccn2)C1COc1ccc(F)cc1 (mixture of isomers) [Example 142, cis-3-{3-[(4-fluorophenoxy)methyl]-4-methyl-2-azabicyclo[3.1.1]heptane-2-carbonyl}-4-(2H-1,2,3-triazol-2-yl)benzonitrile] |  |  | 7 | 6.33 |  |
| Cc1nc(C(=O)N2C3CC(C3)[C@H](C)C2COc2ccc(F)cc2)c(-n2nccn2)s1 (mixture of isomers) [Example 126, trans-3-[(4-fluorophenoxy)methyl]-4-methyl-2-[2-methyl-5-(2H-1,2,3-triazol-2-yl)-1,3-thiazole-4-carbonyl]-2-azabicyclo[3.1.1]heptane] |  |  | 7.39 | 5.7 |  |
| Cc1nc(C(=O)N2C3CC(C3)[C@H](C)C2COc2ccc(F)cc2)c(-c2ccccn2)s1 (single isomer, unassigned) [Example 124, (3S,4S) or (3R,4R)-3-[(4-fluorophenoxy)methyl]-4-methyl-2-[2-methyl-5-(pyridin-2-yl)-1,3-thiazole-4-carbonyl]-2-azabicyclo[3.1.1]heptane] |  |  | 8.43 | 6.3 |  |
| Cc1ccc(-n2nccn2)c(C(=O)N2C3CC(C3)[C@@H](C)C2CNc2nc3ccccc3s2)n1 (single isomer, unassigned) [Example 180, N-{[(3R,4S) or (3S,4R)-4-methyl-2-[6-methyl-3-(2H-1,2,3-triazol-2-yl)pyridine-2-carbonyl]-2-azabicyclo[3.1.1]heptan-3-yl]methyl}-1,3-benzothiazol-2-amine] |  |  | 8.78 | 5.58 |  |
| Cc1ccc(-n2nccn2)c(C(=O)N2C3CC(C3)[C@H](C)C2COc2ccc(Cl)cc2)n1 (single isomer, unassigned) [Example 119, (3S,4S) or (3R,4R)-3-[(4-chlorophenoxy)methyl]-4-methyl-2-[6-methyl-3-(2H-1,2,3-triazol-2-yl)pyridin-2-carbonyl]-2-azabicyclo[3.1.1]heptane] |  |  | 7.08 | 5.77 |  |
| Cc1nc(C(=O)N2C(CNc3ccc4ccccc4n3)CC3CC2C3)c(-c2ccccc2)s1 (stereo not drawn) [Example 60, N-{[2-(2-methyl-5-phenyl-1,3-thiazole-4-carbonyl)-2-azabicyclo[3.1.1]heptan-3-yl]methyl}quinolin-2-amine] |  |  |  |  | OX1 pKi (SPA binding) ([3]; Table 1, [3H]SB-674042 2 nM): 8.27; OX2 pKi (SPA binding) ([4]; Table 1, [3H]EMPA 2 nM): 7.39 |
